In assay [1] the target is T1, human JAK1 kinase domain (JH1) (Homo sapiens, UniProt P23458).
T1 construct: recombinantly generated catalytic kinase (also known as JH1) domain of human JAK1, JAK2, JAK3 and TYK2
The experiment in a line: JH1 biochemical assay for JAK1 (ADP-Glo kinase assay, recombinant JH1 catalytic domain, JAK3-342 peptide, 35 μM ATP). The settings on record: JAK1 JH1, ADP-Glo. An outline of the steps:
(§1)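 Reactions contain 50 μM peptide and run 100 minutes, with enzyme at 4, 0.2, 0.3 and 2 nM for JAK1, JAK2, JAK3 and TYK2. Generated ADP is read by luminescence; IC50 derives from normalized dose-response curves.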
A general note: In ADP-Glo the light output rises with the ADP produced.

Assay [2] deals with T2, human JAK2 kinase domain (JH1) (Homo sapiens, UniProt O60674).
T2 construct: recombinantly generated catalytic kinase (also known as JH1) domain of human JAK1, JAK2, JAK3 and TYK2
T2 sequence (O60674 849-1124 limits assumed): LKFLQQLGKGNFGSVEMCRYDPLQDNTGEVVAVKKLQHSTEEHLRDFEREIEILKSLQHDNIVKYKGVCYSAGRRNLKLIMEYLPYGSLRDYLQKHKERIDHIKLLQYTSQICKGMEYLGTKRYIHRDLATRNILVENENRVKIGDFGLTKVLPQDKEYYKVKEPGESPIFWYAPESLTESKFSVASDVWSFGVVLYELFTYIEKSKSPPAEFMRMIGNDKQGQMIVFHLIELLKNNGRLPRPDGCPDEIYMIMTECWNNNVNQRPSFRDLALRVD
The experiment in a line: JH1 biochemical assay for JAK2 (ADP-Glo kinase assay, recombinant JH1 catalytic domain, JAK3-974 peptide, 15 μM ATP). The settings on record: JAK2 JH1, ADP-Glo. An outline of the steps:
as §1

In assay [3] the target is JAK1 kinase activity on STAT3 in TF1 cells (Homo sapiens, UniProt P23458). The assay can be described thus: pSTAT3 cell assay (MSD; TF1 cells, 30 ng/mL IL-6 stimulation). Type of assay: cell-based. The settings on record: 30 ng/mL IL-6, 15 minutes. An outline of the steps: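 IC50 values derive from 4-parameter logistic fits of normalized pSTAT3 signal, measured by MSD with anti-STAT3 antibodies. TF1 cells, serum-starved beforehand, received compound for 1 hour (top concentration 10 μM, four-fold steps, 10 points) before a 15-minute IL-6 (30 ng/mL) stimulus.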
Sequence of JAK1 kinase activity on STAT3 in TF1 cells (P23458 whole entry): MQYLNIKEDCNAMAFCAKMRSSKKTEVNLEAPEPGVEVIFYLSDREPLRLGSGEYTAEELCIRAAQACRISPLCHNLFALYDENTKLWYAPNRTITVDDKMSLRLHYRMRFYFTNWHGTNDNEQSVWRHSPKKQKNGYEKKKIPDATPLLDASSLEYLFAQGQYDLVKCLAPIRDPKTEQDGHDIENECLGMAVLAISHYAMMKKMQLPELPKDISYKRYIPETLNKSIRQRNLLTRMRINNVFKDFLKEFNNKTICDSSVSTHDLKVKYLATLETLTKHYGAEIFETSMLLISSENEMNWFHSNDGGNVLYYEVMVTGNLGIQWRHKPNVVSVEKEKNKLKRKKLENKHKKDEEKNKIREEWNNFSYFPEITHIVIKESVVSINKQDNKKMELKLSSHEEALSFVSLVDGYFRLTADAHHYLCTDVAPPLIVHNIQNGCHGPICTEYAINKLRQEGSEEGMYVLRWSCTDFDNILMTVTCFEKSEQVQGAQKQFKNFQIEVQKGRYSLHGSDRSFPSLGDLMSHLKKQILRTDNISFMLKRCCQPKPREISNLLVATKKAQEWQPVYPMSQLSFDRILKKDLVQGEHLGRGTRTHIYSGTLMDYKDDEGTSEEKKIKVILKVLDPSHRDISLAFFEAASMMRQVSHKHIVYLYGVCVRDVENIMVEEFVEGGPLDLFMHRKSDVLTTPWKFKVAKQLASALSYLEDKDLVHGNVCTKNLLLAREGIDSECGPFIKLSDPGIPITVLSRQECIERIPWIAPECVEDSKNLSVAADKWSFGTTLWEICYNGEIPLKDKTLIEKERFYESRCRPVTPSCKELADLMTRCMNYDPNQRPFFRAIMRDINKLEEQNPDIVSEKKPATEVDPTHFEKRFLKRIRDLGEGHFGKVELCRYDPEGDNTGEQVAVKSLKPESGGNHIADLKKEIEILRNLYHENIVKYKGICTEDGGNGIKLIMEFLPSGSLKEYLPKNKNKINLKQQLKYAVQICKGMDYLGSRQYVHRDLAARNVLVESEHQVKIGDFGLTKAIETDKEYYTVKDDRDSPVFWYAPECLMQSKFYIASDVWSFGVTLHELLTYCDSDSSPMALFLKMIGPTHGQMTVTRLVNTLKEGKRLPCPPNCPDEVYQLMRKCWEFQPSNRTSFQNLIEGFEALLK

Assay [4] addresses Tyk2 kinase activity on STAT4 in NK92 cells (Homo sapiens, UniProt P29597). The experiment in a line: pSTAT4 cell assay (MSD; NK92 cells, 30 ng/mL IL2 stimulation). The following applies: 30 ng/mL IL2, 15 minutes. Type of assay: cell-based. The method in brief:
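IC50 values come from 4-parameter logistic fits of normalized percent activity. Phospho-STAT was read by MSD (anti-STAT4 antibodies) in NK92 lysates after a 15 min stimulation with 30 ng/mL IL2. The serum-starved cells had been given compound for 1 h (10 points, four-fold, top 10 μM).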

The target in assay [5] is JAK2 kinase activity on STAT5 in TF1 cells (Homo sapiens, UniProt O60674). The experiment in a line: pSTAT5 cell assay (MSD; TF1 cells, 30 ng/mL IL-3 stimulation). It counts as cell-based. The following applies: 30 ng/mL IL-3, 15 minutes. An outline of the steps: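 IC50 from a 4-parameter logistic fit of normalized pSTAT5 signal, measured by MSD in lysates of TF1 cells. Cells were serum-starved, exposed to compound for 1 h (top concentration 10 μM, four-fold, 10 points), then given IL-3 at 30 ng/mL for 15 min.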
Sequence of JAK2 kinase activity on STAT5 in TF1 cells (O60674 whole entry): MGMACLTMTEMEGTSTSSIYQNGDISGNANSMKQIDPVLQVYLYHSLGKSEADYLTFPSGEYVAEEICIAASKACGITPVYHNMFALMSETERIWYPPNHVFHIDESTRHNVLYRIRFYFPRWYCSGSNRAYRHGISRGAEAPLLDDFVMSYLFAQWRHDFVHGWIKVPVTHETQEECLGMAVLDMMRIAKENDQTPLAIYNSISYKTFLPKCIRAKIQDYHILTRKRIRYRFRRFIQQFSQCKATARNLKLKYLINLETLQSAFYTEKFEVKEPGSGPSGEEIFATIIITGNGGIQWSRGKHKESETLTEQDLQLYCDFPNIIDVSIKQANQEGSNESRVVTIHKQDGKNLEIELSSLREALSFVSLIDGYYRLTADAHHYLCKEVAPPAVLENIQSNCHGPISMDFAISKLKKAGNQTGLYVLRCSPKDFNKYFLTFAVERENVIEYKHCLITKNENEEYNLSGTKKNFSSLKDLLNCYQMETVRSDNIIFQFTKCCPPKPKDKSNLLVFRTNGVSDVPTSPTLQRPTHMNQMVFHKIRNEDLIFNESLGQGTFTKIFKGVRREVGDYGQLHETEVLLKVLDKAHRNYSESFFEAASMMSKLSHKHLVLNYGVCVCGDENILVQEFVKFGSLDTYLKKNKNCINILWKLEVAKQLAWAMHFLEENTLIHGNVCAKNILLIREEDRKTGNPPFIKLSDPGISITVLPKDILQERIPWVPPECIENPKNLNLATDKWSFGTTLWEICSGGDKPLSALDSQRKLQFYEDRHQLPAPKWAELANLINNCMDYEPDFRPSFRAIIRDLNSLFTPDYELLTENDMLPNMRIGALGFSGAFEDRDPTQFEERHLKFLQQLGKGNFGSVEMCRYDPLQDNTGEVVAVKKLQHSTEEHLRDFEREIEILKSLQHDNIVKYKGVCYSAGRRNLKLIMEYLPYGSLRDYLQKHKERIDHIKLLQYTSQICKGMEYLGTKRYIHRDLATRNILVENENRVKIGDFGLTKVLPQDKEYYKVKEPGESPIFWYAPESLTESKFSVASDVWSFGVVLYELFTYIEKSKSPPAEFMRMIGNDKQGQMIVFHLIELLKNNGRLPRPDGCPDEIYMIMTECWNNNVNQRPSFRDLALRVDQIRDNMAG

The target of assay [6] is T3, human TYK2 kinase domain (JH1) (Homo sapiens, UniProt P29597).
T3 construct: recombinantly generated catalytic kinase (also known as JH1) domain of human JAK1, JAK2, JAK3 and TYK2
T3 sequence (P29597 897-1176 limits assumed): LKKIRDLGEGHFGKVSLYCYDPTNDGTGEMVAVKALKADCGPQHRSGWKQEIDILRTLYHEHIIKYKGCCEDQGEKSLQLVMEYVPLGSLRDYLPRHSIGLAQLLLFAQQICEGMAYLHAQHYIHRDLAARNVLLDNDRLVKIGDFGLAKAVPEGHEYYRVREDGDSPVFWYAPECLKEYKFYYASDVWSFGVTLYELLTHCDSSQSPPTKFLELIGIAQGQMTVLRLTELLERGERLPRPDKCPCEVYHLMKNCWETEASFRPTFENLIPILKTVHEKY
The experiment in a line: JH1 biochemical assay for TYK2 (ADP-Glo kinase assay, recombinant JH1 catalytic domain, JAK3-974 peptide, 10 μM ATP). The following applies: TYK2 JH1, ADP-Glo. The method in brief: as §1

Assay [7] addresses T4, human JAK3 kinase domain (JH1) (Homo sapiens, UniProt P52333).
T4 construct: recombinantly generated catalytic kinase (also known as JH1) domain of human JAK1, JAK2, JAK3 and TYK2
The assay can be described thus: JH1 biochemical assay for JAK3 (ADP-Glo kinase assay, recombinant JH1 catalytic domain, JAK3-974 peptide, 4 μM ATP). The settings on record: JAK3 JH1, ADP-Glo. The method in brief:
as §1

The structures appear in SMILES notation. Counter-ions that a name gives are not always drawn.

T4 sequence (P52333 822-1111 limits assumed): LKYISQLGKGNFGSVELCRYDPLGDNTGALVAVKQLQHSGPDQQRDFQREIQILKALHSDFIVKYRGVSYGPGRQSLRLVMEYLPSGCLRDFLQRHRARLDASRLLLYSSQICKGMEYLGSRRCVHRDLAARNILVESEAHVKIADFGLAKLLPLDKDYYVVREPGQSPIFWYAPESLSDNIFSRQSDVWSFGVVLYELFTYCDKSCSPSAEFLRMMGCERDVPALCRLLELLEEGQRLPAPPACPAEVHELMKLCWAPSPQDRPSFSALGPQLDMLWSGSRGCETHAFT
Sequence of Tyk2 kinase activity on STAT4 in NK92 cells (P29597 whole entry): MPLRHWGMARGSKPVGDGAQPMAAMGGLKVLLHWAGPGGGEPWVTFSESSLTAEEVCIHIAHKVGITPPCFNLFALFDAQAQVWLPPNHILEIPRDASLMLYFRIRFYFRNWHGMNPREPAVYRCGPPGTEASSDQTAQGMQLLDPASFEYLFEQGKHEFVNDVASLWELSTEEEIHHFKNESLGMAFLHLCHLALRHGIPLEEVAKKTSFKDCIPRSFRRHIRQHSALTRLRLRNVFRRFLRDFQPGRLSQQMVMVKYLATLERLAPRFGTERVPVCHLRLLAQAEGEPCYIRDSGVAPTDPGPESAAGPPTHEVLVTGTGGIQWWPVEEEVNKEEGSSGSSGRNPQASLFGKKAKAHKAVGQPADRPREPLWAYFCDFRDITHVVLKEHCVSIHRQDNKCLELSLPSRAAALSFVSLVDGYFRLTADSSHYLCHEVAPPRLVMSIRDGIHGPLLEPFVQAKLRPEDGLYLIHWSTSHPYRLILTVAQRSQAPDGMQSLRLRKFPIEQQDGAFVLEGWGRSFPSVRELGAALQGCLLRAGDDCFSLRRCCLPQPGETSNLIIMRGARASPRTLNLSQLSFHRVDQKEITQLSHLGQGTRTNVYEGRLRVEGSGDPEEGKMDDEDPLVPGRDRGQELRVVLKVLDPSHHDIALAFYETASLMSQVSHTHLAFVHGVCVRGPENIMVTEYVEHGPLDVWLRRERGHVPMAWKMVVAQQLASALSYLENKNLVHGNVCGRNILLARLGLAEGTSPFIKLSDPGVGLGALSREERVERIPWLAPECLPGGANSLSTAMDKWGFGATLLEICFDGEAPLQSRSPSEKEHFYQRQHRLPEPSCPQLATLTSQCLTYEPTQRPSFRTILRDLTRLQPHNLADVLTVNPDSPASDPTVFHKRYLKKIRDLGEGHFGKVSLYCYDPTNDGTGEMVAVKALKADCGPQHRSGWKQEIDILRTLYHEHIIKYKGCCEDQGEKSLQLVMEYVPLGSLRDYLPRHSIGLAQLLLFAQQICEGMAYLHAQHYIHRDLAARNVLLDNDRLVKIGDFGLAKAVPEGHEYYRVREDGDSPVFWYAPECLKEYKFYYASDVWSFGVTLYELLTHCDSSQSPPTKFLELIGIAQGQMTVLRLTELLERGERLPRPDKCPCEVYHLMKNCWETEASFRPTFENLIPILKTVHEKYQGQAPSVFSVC
T1 sequence (P23458 875-1153 limits assumed): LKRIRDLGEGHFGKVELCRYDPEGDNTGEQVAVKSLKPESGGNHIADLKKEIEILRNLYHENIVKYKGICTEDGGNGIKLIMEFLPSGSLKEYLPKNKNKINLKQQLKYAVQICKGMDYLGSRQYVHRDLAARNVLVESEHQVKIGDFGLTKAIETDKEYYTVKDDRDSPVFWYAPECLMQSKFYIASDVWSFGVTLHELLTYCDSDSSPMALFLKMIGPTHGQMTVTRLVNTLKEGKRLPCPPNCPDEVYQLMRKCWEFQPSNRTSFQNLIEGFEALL

As for `C[C@@H]1CN(c2nc(-c3ccn(C)c(=O)c3)cn3nccc23)C(=O)[C@]1(C#N)C1CC1` [Example 261, (3R,4S)-3-cyclopropyl-4-methyl-1-(6-(1-methyl-2-oxo-1,2-dihydropyridin-4-yl)pyrazolo[1,5-a]pyrazin-4-yl)-2-oxopyrrolidine-3-carbonitrile trifluoroacetate], the half-inhibitory concentration (IC50) was 100 to 1000 nM in assay [1]; 100 to 1000 nM in assay [2]; 1000 to 5000 nM in assay [3]; more than 100 nM in assay [4]; 1000 to 5000 nM in assay [5]; less than 5 nM in assay [6]. Also, in assay [7], the concentration for half-maximal inhibition (IC50) is less than 100 nM.

As for `C[C@@H]1CN(c2nc(-c3ccc4nccn4c3)cn3nccc23)C(=O)[C@]1(C#N)C1CC1` [Example 263, (3R,4S)-3-cyclopropyl-1-(6-(imidazo[1,2-a]pyridin-6-yl)pyrazolo[1,5-a]pyrazin-4-yl)-4-methyl-2-oxopyrrolidine-3-carbonitrile trifluoroacetate], the IC50 was less than 100 nM in assay [1]; less than 100 nM in assay [2]; less than 100 nM in assay [3]; 20 to 50 nM in assay [4]; 100 to 1000 nM in assay [5]; less than 5 nM in assay [6]. Further, in assay [7], the 50% inhibitory concentration (IC50) is less than 100 nM.

For the compound `C[C@@H]1CN(c2nc(-c3cnc(N(C)C)nc3)cn3nccc23)C(=O)[C@]1(C#N)C1CC1` [Example 264, (3R,4S)-3-cyclopropyl-1-(6-(2-(dimethylamino)pyrimidin-5-yl)pyrazolo[1,5-a]pyrazin-4-yl)-4-methyl-2-oxopyrrolidine-3-carbonitrile trifluoroacetate], the IC50 in assay [1] was 100 to 1000 nM; in assay [2], 1000 to 5000 nM; in assay [3], more than 10000 nM; in assay [4], 50 to 100 nM; in assay [5], more than 10000 nM; in assay [6], 5 to 20 nM. Further, in assay [7], the IC50 lay in the range of 100 to 1000 nM.

On to `C[C@@H]1CN(c2nc(-c3ccc(O)nc3)cn3nccc23)C(=O)[C@]1(C#N)C1CC1` [Example 267, (3R,4S)-3-cyclopropyl-1-(6-(6-hydroxypyridin-3-yl)pyrazolo[1,5-a]pyrazin-4-yl)-4-methyl-2-oxopyrrolidine-3-carbonitrile trifluoroacetate], for which the IC50 in assay [1] is less than 100 nM; in assay [2], 100 to 1000 nM; in assay [3], 100 to 1000 nM; in assay [4], 50 to 100 nM; in assay [5], 100 to 1000 nM; in assay [6] it was less than 5 nM. Besides, the IC50 in assay [7] is less than 100 nM.

`C[C@@H]1CN(c2ccnc3cc(-c4cnn(C)c4)oc23)C(=O)[C@]1(C#N)C1CC1` [Example 268, (3R,4S)-3-cyclopropyl-4-methyl-1-(2-(1-methyl-1H-pyrazol-4-yl)furo[3,2-b]pyridin-7-yl)-2-oxopyrrolidine-3-carbonitrile]: the IC50 was 100 to 1000 nM in assay [1]; 100 to 1000 nM in assay [2]; 1000 to 5000 nM in assay [3]; 50 to 100 nM in assay [4]; more than 10000 nM in assay [5]; 5 to 20 nM in assay [6]. Also, the IC50 in assay [7] fell in the range of 100 to 1000 nM.

For `C[C@@H]1CN(c2cc(-c3cnn(C)c3)cn3nccc23)C(=O)[C@]1(C#N)C1CC1` [Example 271, (3R,4S)-3-cyclopropyl-4-methyl-1-(6-(1-methyl-1H-pyrazol-4-yl)pyrazolo[1,5-a]pyridin-4-yl)-2-oxopyrrolidine-3-carbonitrile], the IC50 in assay [1] is 100 to 1000 nM; in assay [2], 1000 to 5000 nM; in assay [3], more than 10000 nM; in assay [4] it was more than 100 nM; in assay [5], more than 10000 nM; in assay [6], 5 to 20 nM. In addition, in assay [7], the IC50 lay in the range of 100 to 1000 nM.

Take `C[C@@H]1CN(c2nn(-c3cnn(C)c3)c3cnccc23)C(=O)[C@]1(C#N)C1CC1` [Example 275, (3R,4S)-3-cyclopropyl-4-methyl-1-(1-(1-methyl-1H-pyrazol-4-yl)-1H-pyrazolo[3,4-c]pyridin-3-yl)-2-oxopyrrolidine-3-carbonitrile]: the IC50 in assay [1] is 100 to 1000 nM; in assay [2], 1000 to 5000 nM; in assay [3], 5000 to 10000 nM; in assay [4] it was more than 100 nM; in assay [5], more than 10000 nM; in assay [6] it was 5 to 20 nM. Also, in assay [7], the IC50 lay in the range of 100 to 1000 nM.

In the case of `C[C@@H]1CN(c2nn(-c3cnn(C(F)F)c3)c3cnccc23)C(=O)[C@]1(C#N)C1CC1` [Example 276, (3R,4S)-3-cyclopropyl-1-(1-(1-(difluoromethyl)-1H-pyrazol-4-yl)-1H-pyrazolo[3,4-c]pyridin-3-yl)-4-methyl-2-oxopyrrolidine-3-carbonitrile], the IC50 was 100 to 1000 nM in assay [1]; 1000 to 5000 nM in assay [2]; 5000 to 10000 nM in assay [3]; more than 100 nM in assay [4]; more than 10000 nM in assay [5]; 5 to 20 nM in assay [6]. Besides, the IC50 in assay [7] lay within 100 to 1000 nM.

In the case of `CCn1cc(-n2nc(N3C[C@@H](C)[C@@](C#N)(C4CC4)C3=O)c3ccncc32)cn1` [Example 277, (3R,4S)-3-cyclopropyl-1-(1-(1-ethyl-1H-pyrazol-4-yl)-1H-pyrazolo[3,4-c]pyridin-3-yl)-4-methyl-2-oxopyrrolidine-3-carbonitrile], the half-maximal inhibitory concentration (IC50) in assay [1] was 100 to 1000 nM; in assay [2], 100 to 1000 nM; in assay [3] it was 1000 to 5000 nM; in assay [4] it was more than 100 nM; in assay [5], 5000 to 10000 nM; in assay [6], less than 5 nM. For the same compound, the concentration for half-maximal inhibition (IC50) in assay [7] is 100 to 1000 nM.

`C[C@@H]1CN(c2nn(-c3cnn(C4COC4)c3)c3cnccc23)C(=O)[C@]1(C#N)C1CC1` [Example 278, (3R,4S)-3-cyclopropyl-4-methyl-1-(1-(1-(oxetan-3-yl)-1H-pyrazol-4-yl)-1H-pyrazolo[3,4-c]pyridin-3-yl)-2-oxopyrrolidine-3-carbonitrile]: the IC50 in assay [1] was 100 to 1000 nM; in assay [2], 100 to 1000 nM; in assay [3], 5000 to 10000 nM; in assay [4], more than 100 nM; in assay [5], 5000 to 10000 nM; in assay [6], less than 5 nM. Further, the IC50 in assay [7] fell in the range of 100 to 1000 nM.

For the compound `CC(C)n1cc(-n2nc(N3C[C@@H](C)[C@@](C#N)(C4CC4)C3=O)c3ccncc32)cn1` [Example 280, (3R,4S)-3-cyclopropyl-1-(1-(1-isopropyl-1H-pyrazol-4-yl)-1H-pyrazolo[3,4-c]pyridin-3-yl)-4-methyl-2-oxopyrrolidine-3-carbonitrile], the half-maximal inhibitory concentration (IC50) in assay [1] was 100 to 1000 nM; in assay [2] it was 100 to 1000 nM; in assay [3], 1000 to 5000 nM; in assay [4] it was more than 100 nM; in assay [5] it was more than 10000 nM; in assay [6], less than 5 nM. Moreover, in assay [7], the IC50 was in the range of 100 to 1000 nM.

Turning to `Cc1cc(-n2nc(N3C[C@@H](C)[C@@](C#N)(C4CC4)C3=O)c3ccncc32)ccn1` [Example 281, (3R,4S)-3-cyclopropyl-4-methyl-1-(1-(2-methylpyridin-4-yl)-1H-pyrazolo[3,4-c]pyridin-3-yl)-2-oxopyrrolidine-3-carbonitrile], the IC50 in assay [1] was 100 to 1000 nM; in assay [2], 1000 to 5000 nM; in assay [3], 1000 to 5000 nM; in assay [4] it was more than 100 nM; in assay [5] it was more than 10000 nM; in assay [6], 5 to 20 nM. Also, the half-maximal inhibitory concentration (IC50) in assay [7] lay in the range of 100 to 1000 nM.

Turning to `C[C@@H]1CN(c2nc(-c3cnn(C)c3)cc3ncsc23)C(=O)[C@]1(C#N)C1CC1` [Example 284, (3R,4S)-3-cyclopropyl-4-methyl-1-(6-(1-methyl-1H-pyrazol-4-yl)thiazolo[5,4-c]pyridin-4-yl)-2-oxopyrrolidine-3-carbonitrile], the IC50 in assay [1] is less than 100 nM; in assay [2] it was less than 100 nM; in assay [3], less than 100 nM; in assay [4] it was 5 to 20 nM; in assay [5], less than 100 nM; in assay [6], less than 5 nM. For the same compound, the IC50 in assay [7] was less than 100 nM.

A word on the IC50: it is the concentration that inhibits the measured activity by half.

(Values after US20260297085A1, “1 H-PYRROLO[2,3-B]PYRIDIN-4-YL]-2-OXOPYRROLIDINE-3-CARBONITRILE DERIVATIVES AS TYROSINE KINASE 2 (TYK2) INHIBITORS FOR THE TREATMENT OF INFLAMMATORY DISEASES” (BIOGEN MA INC., priority 2023, published 2026).)
